What all share (assay type): in vivo, human
Series [1] relates to patient with degenerative osteoarthritis in the left knee with bone marrow edema lesions. As to the kind of experiment: Bone marrow edema lesions (BMEL) assessed by MRI, left knee, patient treated with PPS. From the text: (§1) Example 1 is a study of the safety, tolerability and result of a patient treated with PPS suffering from degenerative osteoarthritis in the left knee with bone marrow edema lesions (BMEL), as assessed by magnetic resonance imaging (MRI), and from persistent pain following total right knee arthroplasty.
(§2) The patient had end stage osteroarthrtis (OA) in their right knee. They underwent a total knee replacement (TKR) in the right knee and had aseptic, persistent pain from that joint post replacement. They also had pain in their left knee (degenerative osteoarthritis) and was recommended to have a TKR in that joint.
(§3) They were treated with PPS. The treatment regimen consisted of administration of PPS, at a preferred dose of 2 mg/kg of body weight, twice weekly for three weeks by subcutaneous injection (total of six injections).
(§4) The protocol featured the following: • Treatment regimen: 2× weekly subcutaneous injections of PPS (preferred dose 2 mg/kg) for 3 weeks (total of 6 injections)

In series [2] the test system is patient with persistent pain following total right knee arthroplasty. Nature of the series: Aseptic, persistent post-operative pain in right artificial knee joint after total knee replacement, patient treated with PPS. To be noted: PPS 2 mg/kg SC twice weekly for 3 weeks.
Description: as §1, §2, §3, §4

Series [3] deals with patient with degenerative osteoarthritis in the left knee. Nature of the series: Numerical Rating Scale (NRS) pain score, left knee with degenerative osteoarthritis, patient treated with PPS. To be noted: left knee (degenerative OA); PPS 2 mg/kg SC twice weekly for 3 weeks (6 injections); 0-10 scale; before PPS 8.
Description: as §1, §2, §3, §4
Numerical Rating Scale (NRS) is an 11-point scale (0-10). A state of no pain is 0 and the worst pain imaginable is 10.

The subject of series [4] is patient with left knee osteoarthritis and persistent right knee pain following TKR. Nature of the series: Safety and tolerability (adverse events) of PPS under TGA SAS(B). The following applies: PPS 2 mg/kg SC twice weekly for 3 weeks, one patient. On the procedure:
as §1
The patient was treated with PPS under the TGA Special Access Scheme (B). (Approval to use PPS as treatment for the patient was acquired from Department of Health—Therapeutic Goods Administration, Australian Government under the Special Access Scheme (SAS) since the injectable form of PPS was not a registered product in Australia.)
as §3

Series [5] has as its system patient with degenerative osteoarthritis in the left knee. Nature of the series: Lysholm Knee Score (knee function), left knee, patient treated with PPS. The following applies: left knee (degenerative OA); PPS 2 mg/kg SC twice weekly for 3 weeks; 0-100 scale; before PPS 58.
Description: as §1, §2, §3, §4
Lysholm Knee Score is a total score of 0-100 is calculated based on the results from the eight functional components of the Lysholm knee score scale: Limp (5 points), Support (5 points), Locking (15 points), Instability (25 points), Pain (25 points), Swelling (10 points), Stair climbing (10 points), and Squatting (5 points). […]

Take Pentosan polysulfate [PPS]: the “BMEL reduction as assessed by magnetic resonance imaging” value in series [1] (PPS 2 mg/kg SC twice weekly for 3 weeks) is reported as “clearly visible BMEL reduction”. For the same substance, the “bone marrow edema stage, post-treatment MRI” value in series [1] (after PPS, at baseline up to two thirds) is “negligible”. Further, the “aseptic, persistent pain in the right artificial joint” value in series [2] was “zero”. In addition, the “After PPS/NRS Pain” value in series [3] is reported as 0. Also, the adverse events entry in series [4] is given as “no adverse events were reported”. Further, in series [5], the “After PPS/Lysholm Knee Score” value is listed as 99.
